According to patent US20110053945A1, “SALTS OF 6-(5-CHLORO-2-PYRIDYL)-5-[(4-METHYL-1-PIPERAZINYL)CARBONYLOXY]-7-OXO-6,7-DIHY-DRO-5H-PYRROLO[3,4-B]PYRAZINE” (SEPRACOR INC., priority 2007, published 2011):
Counter-ions that a name gives are not always drawn.

Legend:
[1] = Aqueous solubility, equilibrated 24 hour suspension of the salt in water, HPLC; type: physicochemical; settings: for pH: pH measured at saturation in water; for Solubility: water, 24 hour at ambient
Experimental: The aliquot was diluted and analyzed by HPLC. The data was compared to a standard curve generated from a set of solutions of known concentrations. The standard curve and the samples were analyzed using a HPLC using the following conditions: • Column: Symmetry C-18, 5 um, 15 cm×3.9 mm (Waters) • Mobile Phase: 0.05 M KH2PO4-0.01 M Hexanesulfonic Acid/THF (1000:125) (Apparent pH 5.0) • Column Temp: 20-30° C. • Flow Rate: 1.0 mL/min • Wavelength: 305 nm • Run Time: 15 min (zopiclone retention time is 9.5-10 min)

[2] = Intrinsic dissolution, USP 28 method <1087>; type: physicochemical; settings: isotonic 50 mM acetate buffer pH 4.5, 37° C., 50 rpm; for Intrinsic dissolution Average: average of two runs
Experimental: Intrinsic dissolution was determined using USP 28 method <1087> (United States Pharmacopeia, The National Formulary, USP 28, 28th edition, Rockville, […]., 2005). Preparation of each test sample was performed as per USP 28 method <1087> by weighing and transferring the material to the die cavity and compressing for 1 minute at the minimum compression pressure necessary to form a nondisintegrating compacted pellet. The dissolution media used was isotonic 50 mM acetate buffer (pH 4.5) at 37° C. and speed was set at 50 rpm. Each run was halted at 5 min, irrespective of the percent dissolved. Each salt was run in duplicate.

Structure (SMILES)	pH [1]	Solubility [1]	Intrinsic dissolution Run 1 [2] [mgA/cm^2/min]	Intrinsic dissolution Run 2 [2] [mgA/cm^2/min]	Intrinsic dissolution Average [2] [mgA/cm^2/min]
CN1CCN(C(=O)OC2c3nccnc3C(=O)N2c2ccc(Cl)cn2)CC1 (stereo in doubt) [(R)-Mandelate, (S)-Zopiclone (R)-Mandelate]	5.1	25 mgA/mL	8.2	8.9	8.5
CN1CCN(C(=O)O[C@H]2c3nccnc3C(=O)N2c2ccc(Cl)cn2)CC1 [D-Malate, (S)-Zopiclone D-Malate]	4.0	36 mgA/mL	20.0	19.8	19.9
CN1CCN(C(=O)O[C@H]2c3nccnc3C(=O)N2c2ccc(Cl)cn2)CC1 [Free base, (S)-(6-(5-chloro-2-pyridyl)-5-[(4-methyl-1-piperazinyl)carbonyloxy]-7-oxo-6,7-dihydro-5H-pyrrolo[3,4-b]pyrazine), reference compound]	7.6	0.2^1 mgA/mL	0.6	0.5	0.5
CN1CCN(C(=O)O[C@H]2c3nccnc3C(=O)N2c2ccc(Cl)cn2)CC1 [Mesylate, (S)-Zopiclone Mesylate]	4.9	>86 mgA/mL	–	–	–
CN1CCN(C(=O)O[C@H]2c3nccnc3C(=O)N2c2ccc(Cl)cn2)CC1 [Succinate, (S)-Zopiclone Succinate]	–	100 mgA/mL	–	–	–
